Data published in patent US20250122222A1, “HETEROCYCLIC COMPOUNDS AND METHODS OF USE” (AMGEN INC., priority 2021, published 2025).
Read-outs that look alike come from different tables or passages of the source.

Columns and labels:
[1] = target: His-tagged KRAS G12D protein (Homo sapiens, UniProt P01116, G12D); test: KRAS G12D TR-FRET assay (binding); details: biotinylated KRPep-2d substrate, GDP in assay buffer
[2] = tested on: Phosphorylation of ERK1/2 in AsPC-1 cells; test: Phospho-ERK1/2 MSD assay; type: cell-based
Procedure: Sixteen hours prior to compound treatment, AsPC-1 cells were seeded in 96-well cell culture plates at a density of 25,000 cells/well and incubated at 37° C., 5% CO2. A compound dose-response titration was diluted in growth media, added to appropriate wells of a cell culture plate, and then incubated at 37° C., 5% CO2 for 2 hours.

[3] = Homo sapiens, ASPC1, read-out: 2 h p-ERK (AsPC-1 cells), IC50 (μM), 2 hours compound treatment

Sequence of His-tagged KRAS G12D protein (P01116 1-188 isoform P01116-2 G12D): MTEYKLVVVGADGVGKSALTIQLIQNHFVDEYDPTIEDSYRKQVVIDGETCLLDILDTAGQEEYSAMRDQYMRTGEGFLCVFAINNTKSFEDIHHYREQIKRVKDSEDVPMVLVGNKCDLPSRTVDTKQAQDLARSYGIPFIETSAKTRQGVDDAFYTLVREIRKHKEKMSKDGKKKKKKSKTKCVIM

Row | SMILES | IC50 [1] [nM] | IC50 [2, 3] [µM] | IC50 ([2]; read-out: 2 h p-ERK (AsPC-1 cells), IC50, 2 hours compound treatment) [µM]
1 | CCc1c(F)ccc2cc(O)cc(-c3ncc4c(N5CCOC(C(N)=O)C5)nc(OC[C@@]56CCCN5C[C@H](F)C6)nc4c3F)c12 (stereo partly drawn) [Example 76, 4-(7-(8-Ethyl-7-fluoro-3-hydroxynaphthalen-1-yl)-8-fluoro-2-(((2R,7aS)-2-fluorotetrahydro-1H-pyrrolizin-7a(5H)-yl)methoxy)pyrido[4,3-d]pyrimidin-4-yl)morpholine-2-carboxamide] | 6 | 3.33 | –
2 | CCc1c(F)ccc2cc(O)cc(-c3ncc4c(N5CCOC[C@](O)(CC)C5)nc(OC[C@@]56CCCN5C[C@H](F)C6)nc4c3F)c12 [Example 79, (S)-6-Ethyl-4-(7-(8-ethyl-7-fluoro-3-hydroxynaphthalen-1-yl)-8-fluoro-2-(((2R,7aS)-2-fluorotetrahydro-1H-pyrrolizin-7a(5H)-yl)methoxy)pyrido [4,3-d]pyrimidin-4-yl)-1,4-oxazepan-6-o1] | 1 | – | 0.024

Further molecules by falling IC50 [1], results first:

Row | IC50 [1] [nM] | IC50 [2, 3] [µM] | SMILES | IC50 ([2]; read-out: 2 h p-ERK (AsPC-1 cells), IC50, 2 hours compound treatment) [µM]
3 | 4 | 0.436 | CCc1c(F)ccc2cc(O)cc(-c3ncc4c(N5CCOCC(O)(C6CC6)C5)nc(OC[C@@]56CCCN5C[C@H](F)C6)nc4c3F)c12 (stereo partly drawn) [Example 74, 6-Cyclopropyl-4-(7-(8-ethyl-7-fluoro-3-hydroxynaphthalen-1-yl)-8-fluoro-2-(((2R,7aS)-2-fluorotetrahydro-1H-pyrrolizin-7a(5H)-yl)methoxy)pyrido[4,3-d]pyrimidin-4-yl)-1,4-oxazepan-6-ol] | –
4 | 3 | 0.063 | CCc1c(F)ccc2cc(O)cc(-c3ncc4c(N5CCOCC(O)(CC)C5)nc(OC[C@@]56CCCN5C[C@H](F)C6)nc4c3F)c12 (stereo partly drawn) [Example 73, 6-Ethyl-4-(7-(8-ethyl-7-fluoro-3-hydroxynaphthalen-1-yl)-8-fluoro-2-(((2R,7aS)-2-fluorotetrahydro-1H-pyrrolizin-7a(5H)-yl)methoxy)pyrido[4,3-d]pyrimidin-4-yl)-1,4-oxazepan-6-ol] | –
5 | 1 | 0.643 | C#CC1(O)COCCN(c2nc(OC[C@@]34CCCN3C[C@H](F)C4)nc3c(F)c(-c4cc(O)cc5ccc(F)c(CC)c45)ncc23)C1 (stereo partly drawn) [Example 70, 4-(7-(8-ethyl-7-fluoro-3-hydroxynaphthalen-1-yl)-8-fluoro-2-(((2R,7aS)-2-fluorotetrahydro-1H-pyrrolizin-7a(5H)-yl)methoxy)pyrido[4,3-d]pyrimidin-4-yl)-6-ethynyl-1,4-oxazepan-6-ol] | –
6 | 1 | 0.013 | CCc1cccc2cc(O)cc(-c3ncc4c(N5CCOC[C@@](C)(O)C5)nc(OC[C@@]56CCCN5C[C@H](F)C6)nc4c3F)c12 [Example 78, (S)-4-(7-(8-Ethyl-3-hydroxynaphthalen-1-yl)-8-fluoro-2-(((2R,7aS)-2-fluorotetrahydro-1H-pyrrolizin-7a(5H)-yl)methoxy)pyrido [4,3-d]pyrimidin-4-yl)-6-methyl-1,4-oxazepan-6-ol] | –
